Like-named read-outs stand apart in the source and are kept apart here.
Experiments:
AKT1 WT = molecular target: T1, AKT1 WT (Homo sapiens, UniProt P31749); assay: Live cell AKT1 WT target engagement by NanoBRET competitive probe displacement in HEK293 cells; type: binding; conditions: 2 h at 37° C., read-out: AKT1 WT IC50
T1 construct: expressed in transfected cells; host or cells: HEK293
Experimental: (§1) Determining live cell AKT1 E17K, AKT1 WT, and AKT2 target engagement by NanoBRET competitive probe displacement. […] Briefly, HEK293 cells were transfected with plasmids encoding kinase-NanoLuciferase fusion proteins overnight. Cells were then treated with serial dilutions of compound and an ˜EC50 concentration of fluorescently-tagged ATP-competitive tracer (Promega). After incubation for 2 h at 37° C., luciferase substrate and extracellular luciferase inhibitor were added to all wells, and luminescent intensity at 460 nm and 600 nm were measured on a multimode plate-reader. The ratio of E600/E460 was calculated to give the tracer engagement signal (BRET). IC50 values were calculated by fitting BRET values to a log(inhibitor) vs. response Hill equation.

AKT2 = molecular target: T2, AKT2 (Homo sapiens, UniProt P31751); assay: Live cell AKT2 target engagement by NanoBRET competitive probe displacement in HEK293 cells; type: binding; conditions: 2 h at 37° C., read-out: AKT2 IC50
T2 construct: expressed in transfected cells; host or cells: HEK293
Experimental: as §1

[1] = NanoBRET competitive probe displacement, live HEK293 cells
[2] = NanoBRET live cell target engagement, HEK293 cells

T2 sequence (P31751 whole entry): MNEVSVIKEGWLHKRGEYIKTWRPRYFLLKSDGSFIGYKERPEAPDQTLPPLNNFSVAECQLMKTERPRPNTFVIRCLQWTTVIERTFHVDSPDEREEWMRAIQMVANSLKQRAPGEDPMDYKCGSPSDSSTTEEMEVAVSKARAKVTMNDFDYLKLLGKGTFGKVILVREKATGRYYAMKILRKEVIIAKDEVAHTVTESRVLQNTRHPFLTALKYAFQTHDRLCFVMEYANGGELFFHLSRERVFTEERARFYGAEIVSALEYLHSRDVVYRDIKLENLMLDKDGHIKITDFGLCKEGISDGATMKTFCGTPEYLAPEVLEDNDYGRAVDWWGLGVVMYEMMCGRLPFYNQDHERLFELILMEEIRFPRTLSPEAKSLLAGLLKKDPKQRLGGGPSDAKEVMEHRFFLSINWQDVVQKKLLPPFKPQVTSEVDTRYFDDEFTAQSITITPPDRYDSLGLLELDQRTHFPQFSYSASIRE
T1 sequence (P31749 whole entry): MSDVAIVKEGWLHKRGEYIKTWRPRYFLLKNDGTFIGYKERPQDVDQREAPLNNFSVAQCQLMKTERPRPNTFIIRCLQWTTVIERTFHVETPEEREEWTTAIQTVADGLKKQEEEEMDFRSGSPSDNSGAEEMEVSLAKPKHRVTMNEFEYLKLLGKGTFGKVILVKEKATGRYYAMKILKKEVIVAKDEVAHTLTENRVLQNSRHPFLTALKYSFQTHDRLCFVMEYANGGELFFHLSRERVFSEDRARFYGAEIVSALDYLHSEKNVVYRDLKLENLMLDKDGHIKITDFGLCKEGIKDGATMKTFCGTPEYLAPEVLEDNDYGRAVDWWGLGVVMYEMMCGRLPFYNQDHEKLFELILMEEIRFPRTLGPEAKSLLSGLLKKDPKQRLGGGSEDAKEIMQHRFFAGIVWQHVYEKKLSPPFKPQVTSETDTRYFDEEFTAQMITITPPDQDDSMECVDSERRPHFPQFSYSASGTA

| Structure (SMILES) | IC50 (AKT1 WT; [1]) | IC50 (AKT2; [1]) | IC50 (AKT1 WT; [2]) | IC50 (AKT2; [2]) |
| --- | --- | --- | --- | --- |
| N[C@H]1CCc2cc(-n3c(-c4ccccc4F)nc4ccc(-n5cccn5)nc43)ccc21 [Compound 527] | 19.5 nM | 1150 nM | – | – |
| Cc1ccc(C(=O)N[C@H]2CCc3cc(-n4c(-c5cccnc5N)nc5ccc(-n6ncnc6C)nc54)ccc32)cn1 [Compound 418, (S)—N-(5-(2-(2-aminopyridin-3-yl)-5-(5-methyl-1H-1,2,4-triazol-1-yl)-3H-imidazo[4,5-b]pyridin-3-yl)-2,3-dihydro-1H-inden-1-yl)-6-methylnicotinamide] | 76 nM | 2680 nM | – | – |
| Cc1ccc(S(=O)(=O)N[C@H]2CCc3cc(-n4c(-c5cccnc5N)nc5ccc(-n6cccn6)nc54)ccc32)cn1 [Compound 82] | – | – | 65.8 nM | 2140 nM |
| Nc1ncccc1-c1nc2ccc(-n3cccn3)nc2n1-c1ccc2c(c1)CC[C@@H]2NC(=O)c1cnc2nccn2c1 [Compound 160] | – | – | 53.5 nM | 560 nM |
| Cc1ncsc1C(=O)N[C@H]1CCc2cc(-n3c(-c4cccnc4N)nc4ccc(-n5cccn5)nc43)ccc21 [Compound 99] | – | – | 28.4 nM | 260 nM |
| Nc1ncccc1-c1nc2ccc(-n3cccn3)nc2n1-c1ccc2c(c1)CC(F)[C@@H]2NC1CCc2cnccc21 (stereo partly drawn) [Compound 481] | 13.9 nM | 278 nM | – | – |
| Nc1ncccc1-c1nc2ccc(-n3cccn3)nc2n1-c1ccc2c(c1)CC[C@@H]2NC1CCc2ccncc21 (single isomer, unassigned) [Example 495, (S*)—N—((S)-5-(2-(2-aminopyridin-3-yl)-5-(1H-pyrazol-1-yl)-3H-imidazo[4,5-b]pyridin-3-yl)-2,3-dihydro-1H-inden-1-yl)-6,7-dihydro-5H-cyclopenta[c]pyridin-7-amine] | 9.4 nM | 197 nM | – | – |
| Cc1ncccc1C(=O)N[C@H]1CCc2cc(-n3c(-c4cccnc4N)nc4ccc(C5CC5)nc43)ccc21 [Compound 129] | – | – | 111 nM | > 10000 nM |
| Nc1ncccc1-c1nc2ccc(-n3cccn3)nc2n1-c1ccc2c(c1)CC[C@@H]2NC(=O)c1cnc(C(F)F)cc1F [Compound 97] | – | – | 21.9 nM | 83.5 nM |
| Nc1ncccc1-c1nc2ccc(-n3cccn3)nc2n1-c1ccc2c(c1)CC[C@@H]2NC1CCN(C(=O)[C@H]2C[C@@H]2F)CC1 [Compound 479] | 89.3 nM | > 10000 nM | – | – |
| COc1nccc2c1CCC2N[C@H]1CCc2cc(-n3c(-c4cccnc4N)nc4ccc(-n5cccn5)nc43)ccc21 (stereo partly drawn) [Compound 509] | 28.7 nM | 928 nM | – | – |
| Cn1nc(C(=O)N[C@H]2CCc3cc(-n4c(-c5cccnc5N)nc5ccc(-n6cccn6)nc54)ccc32)cc1C#N [Compound 214] | – | – | 56.9 nM | 2690 nM |
| Nc1ncccc1-c1nc2ccc(-n3cccn3)nc2n1-c1ccc2c(c1)CC[C@@H]2NC(=O)c1cc2n(n1)CCO2 [Compound 242] | – | – | 70 nM | 3220 nM |
| Nc1ncccc1-c1nc2ccc(-n3cccn3)nc2n1-c1ccc2c(c1)CC[C@@H]2NC(=O)c1cc(F)c2[nH]ncc2c1 [Compound 261] | – | – | 4.75 nM | 46.7 nM |
| Cc1ccc(C(=O)N[C@H]2CCc3cc(-n4c(-c5cccnc5N)nc5ccc(-n6cnc(C7CC7)n6)nc54)ccc32)cn1 [Compound 419] | 35.9 nM | 540 nM | – | – |
| COc1ccn(-c2ccc3nc(-c4cccnc4N)n(-c4ccc5c(c4)CC[C@@H]5NC4CCN(C(=O)C5CC5)CC4F)c3n2)n1 (single isomer, unassigned) [Compound 514] | 26.4 nM | 1130 nM | – | – |
| Nc1ncccc1-c1nc2ccc(-n3cccn3)nc2n1-c1ccc2c(c1)CC[C@@H]2NC(=O)c1cnc2ccnn2c1 [Compound 238] | – | – | 9.1 nM | 57.7 nM |
| Nc1ncccc1-c1nc2ccc(-n3cccn3)nc2n1-c1ccc2c(c1)CC[C@@H]2NC1CCN(C(=O)C2CCC2)CC1 [Compound 422] | 67.9 nM | 2080 nM | – | – |
| Nc1ncccc1-c1nc2ccc(-n3cccn3)nc2n1-c1ccc2c(c1)CC[C@@H]2NC1CCN(c2ccccc2)C1 (stereo partly drawn) [Compound 470] | 68.2 nM | 777 nM | – | – |
| Nc1ncccc1-c1nc2ccc(-n3nccn3)nc2n1-c1ccc2c(c1)CC[C@@H]2NC(=O)c1cnc(C(F)F)o1 [Compound 538] | 25.1 nM | 2910 nM | – | – |
| Cc1ccc(C(=O)N[C@H]2CCc3cc(-n4c(-c5cccnc5N)nc5ccc(-n6cnc(C(F)F)n6)nc54)ccc32)cn1 [Compound 430] | 83.5 nM | 2490 nM | – | – |
| Cc1ccc(C(=O)N[C@H]2CCc3cc(-n4c(-c5cccnc5N)nc5ccc(-n6cncn6)nc54)ccc32)cn1 [Compound 346] | – | – | 24.7 nM | 987 nM |
| Nc1ncccc1-c1nc2ccc(-n3cccn3)nc2n1-c1ccc2c(c1)CC[C@@H]2NC(=O)c1ccnc(C#Cc2ccccc2)c1 [Compound 209] | – | – | 37.7 nM | 316 nM |

| Structure (SMILES) | IC50 (AKT1 WT; [1]) | IC50 (AKT2; [1]) | IC50 (AKT1 WT; [2]) | IC50 (AKT2; [2]) |
| --- | --- | --- | --- | --- |
| COc1ncncc1C(=O)N[C@H]1CCc2cc(-n3c(-c4cccnc4N)nc4ccc(-n5cccn5)nc43)ccc21 [Compound 157] | – | – | 40.5 nM | 521 nM |
| Nc1ncccc1-c1nc2ccc(-n3cccn3)nc2n1-c1ccc2c(c1)CC[C@@H]2NC(=O)c1cccnc1F [Compound 127] | – | – | 12.6 nM | 126 nM |
| Nc1ncccc1-c1nc2ccc(-n3cccn3)nc2n1-c1ccc2c(c1)CC[C@@H]2NC1CCC2(CC1)CN(c1ccccn1)C2 [Compound 450] | 198 nM | 4470 nM | – | – |
| Nc1ncccc1-c1nc2ccc(-n3cccn3)nc2n1-c1ccc2c(c1)CC[C@@H]2NC(=O)c1cccc(F)c1 [Compound 332] | – | – | 7.58 nM | 60.2 nM |
| Nc1ncccc1-c1nc2ccc(-n3cccn3)nc2n1-c1ccc2c(c1)CC[C@@H]2NC(=O)c1ccn2nccc2n1 [Compound 306] | – | – | 34.5 nM | 132 nM |
| Nc1ncccc1-c1nc2ccc(-n3cccn3)nc2n1-c1ccc2c(c1)CC[C@@H]2NC(=O)c1ccc(O)nc1 [Compound 297] | – | – | 163 nM | 4220 nM |
| Nc1ncccc1-c1nc2ccc(-n3ccc(OC(F)F)n3)nc2n1-c1ccc2c(c1)CC[C@@H]2NC1[C@@H]2COC[C@H]1CN(C(=O)C1CC1)C2 (stereo partly drawn) [Compound 561] | 93.3 nM | 3090 nM | – | – |
| Cc1ncccc1C(=O)N[C@H]1CCc2cc(-n3c(-c4cccnc4N)nc4c(C)cc(-n5cccn5)nc43)ccc21 [Compound 100] | – | – | 17.2 nM | 24.9 nM |
| Cc1ncc(C(=O)N[C@H]2CCc3cc(-n4c(-c5cccnc5N)nc5ccc(-n6cccn6)nc54)ccc32)cn1 [Compound 143] | – | – | 24.9 nM | 138 nM |
| Nc1ncccc1-c1nc2ccc(-n3cccn3)nc2n1-c1ccc2c(c1)CC[C@@H]2NC1CC2(CCCN2c2ccccn2)C1 (stereo partly drawn) [Compound 465] | > 1000 nM | > 10000 nM | – | – |
| CSc1ccn(-c2ccc3nc(-c4cccnc4N)n(-c4ccc5c(c4)CC[C@@H]5NC4CCN(C(=O)C5CC5)CC4)c3n2)n1 [Compound 518] | 32 nM | 1290 nM | – | – |
| Cc1ncccc1C(=O)N[C@@H]1c2ccc(-n3c(-c4cccnc4N)nc4ccc(-n5cccn5)nc43)cc2CC1F (stereo partly drawn) [Compound 147] | – | – | 19.6 nM | 131 nM |
| N#Cc1cc(C(=O)N[C@H]2CCc3cc(-n4c(-c5cccnc5N)nc5ccc(-n6cccn6)nc54)ccc32)ccc1O [Compound 259] | – | – | 204 nM | 1210 nM |
| C#Cc1ncccc1C(=O)N[C@H]1CCc2cc(-n3c(-c4cccnc4N)nc4ccc(-n5cccn5)nc43)ccc21 [Compound 113] | – | – | 21 nM | 537 nM |
| Cc1ncc(C(=O)N[C@H]2CCc3cc(-n4c(-c5cccnc5N)nc5ccc(-n6cccn6)nc54)ccc32)s1 [Compound 120] | – | – | 5.61 nM | 103 nM |
| Cc1cncc(C(=O)N[C@H]2CCc3cc(-n4c(-c5cccnc5N)nc5ccc(-n6cccn6)nc54)ccc32)n1 [Compound 186] | – | – | 76.3 nM | 3270 nM |
| Cc1ncccc1C(=O)N[C@@H]1c2ccc(-n3c(-c4cccnc4N)nc4ccc(-n5cccn5)nc43)cc2CC1F (stereo partly drawn) [Compound 148] | – | – | 16.7 nM | 107 nM |
| Cc1cnc(-c2ccc3nc(-c4cccnc4N)n(-c4ccc5c(c4)CC[C@@H]5NC(=O)c4nccnc4C)c3n2)s1 [Compound 243, (S)—N-(5-(2-(2-aminopyridin-3-yl)-5-(5-methylthiazol-2-yl)-3H-imidazo[4,5-b]pyridin-3-yl)-2,3-dihydro-1H-inden-1-yl)-3-methylpyrazine-2-carboxamide] | – | – | 75 nM | 8230 nM |
| Nc1ncccc1-c1nc2ccc(-n3cccn3)nc2n1-c1ccc2c(c1)CC[C@@H]2NC(=O)c1ccc2[nH]ncc2c1 [Compound 193] | – | – | 6.71 nM | 42.3 nM |
| N#Cc1cc(-n2cccn2)nc2c1nc(-c1cccnc1N)n2-c1ccc2c(c1)CC[C@@H]2NC(=O)c1ccc(C(F)F)nc1 [Compound 123, (S)—N-(5-(2-(2-aminopyridin-3-yl)-7-cyano-5-(1H-pyrazol-1-yl)-3H-imidazo[4,5-b]pyridin-3-yl)-2,3-dihydro-1H-inden-1-yl)-6-(difluoromethyl)nicotinamide] | – | – | 9.84 nM | 114 nM |
| Cc1ccc(CN[C@H]2CCc3cc(-n4c(-c5cccnc5N)nc5ccc(-n6cccn6)nc54)ccc32)cn1 [Compound 70] | – | – | 49.4 nM | 576 nM |
| Nc1ncccc1-c1nc2ccc(-c3ccn(C(F)F)n3)nc2n1-c1ccc2c(c1)CC[C@@H]2NC(=O)c1ccc(C(F)F)nc1 [Compound 74] | – | – | 4.94 nM | 34.8 nM |

From patent US12624034B2, “Non-covalent modifiers of AKT1 and uses thereof” (Terremoto Biosciences, Inc., priority 2023, dated 2026)
